In patent US9695155B2, “Herbicidal substituted pyrimidinyloxy benzene compounds” (E. I. DU PONT DE NEMOURS AND COMPANY, priority 2013, dated 2017):

Assays:
[1] = test system: spring wheat; assay: Test D preemergence; assay type: in vivo, Triticum aestivum; settings: Triticum aestivum, pre-emergence
Procedure, shortened: (§1)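 Values are 0–100 visual control ratings (0 none, 100 complete) given 7–21 days after application. Soil for preemergence was silt loam; postemergence plants stood 2–18 cm tall.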

[2] = test system: winter wheat; assay: Test D preemergence; assay type: in vivo, Triticum aestivum; settings: Triticum aestivum, pre-emergence
Procedure, shortened: as §1

[3] = test system: wild mustard; assay: Test D preemergence; assay type: in vivo, Sinapis arvensis; settings: Brassica, pre-emergence
Procedure, shortened: as §1

[4] = test system: blackgrass; assay: Test D postemergence; assay type: in vivo, Alopecurus myosuroides; settings: Alopecurus myosuroides, post-emergence, Postemergence, scale 0 to 100 (0 no effect, 100 complete control), read-out: Plant response rating, Blackgrass
Procedure, shortened: as §1

[5] = test system: wild mustard; assay: Test D postemergence; assay type: in vivo, Sinapis arvensis; settings: Brassica, post-emergence
Procedure, shortened: as §1

[6] = test system: windgrass; assay: Test D postemergence; assay type: in vivo, Apera spica-venti; settings: Apera spica-venti, post-emergence
Procedure, shortened: as §1

[7] = test system: morningglory (pitted morningglory); assay: Test F preemergence; assay type: in vivo, Ipomoea lacunosa; settings: 21 days, scale 0 to 100
Excerpt: (§2) Seeds of plant species selected from bermudagrass (Cynodon dactylon), surinam grass (Brachiaria decumbens), large (Lg) crabgrass (Digitaria sanguinalis), crabgrass, naked (naked crabgrass, Digitaria nuda), foxtail, green (green foxtail, Setaria viridis), johnsongrass (Sorghum halepense), kochia (Kochia scoparia), morningglory (pitted morningglory, Ipomoea lacunosa), nutsedge, purple (purple nutsedge, Cyperus rotundus), ragweed (common ragweed, Ambrosia elatior), mustard, black (black mustard, Brassica nigra), guineagrass (Panicum maximum), dallisgrass (Paspalum dilatatum), barnyardgrass (Echinochloa crus-galli), sandbur (southern sandbur, Cenchrus echinatus), sowthistle (common sowthistle, Sonchus oleraceous), Italian ryegrass (Lolium multiflorum), signalgrass (broadleaf signalgrass, Brachiaria platyphylla), dayflower (Virginia (VA) dayflower, Commelina virginica), bluegrass (annual bluegrass, Poa annua), quackgrass (Elytrigia repens), mallow (common mallow, Malva sylvestris), buckwheat, wild (wild buckwheat, Polygonum convolvulus), leafy spurge (Euphorbia esula), chickweed (common chickweed, Stellaria media), wild poinsettia (Euphorbia heterophylla), and pigweed (Amaranthus retroflexus) were planted into a blend of loam soil and sand and treated preemergence with test chemicals formulated in a non-phytotoxic solvent mixture which included a surfactant.
(§3) Treated plants and controls were maintained in a greenhouse for 21 days, after which time all species were compared to controls and visually evaluated. Plant response ratings, summarized in Table F, are based on a scale of 0 to 100 where 0 is no effect and 100 is complete control. A dash (-) response means no test result.

[8] = test system: Italian ryegrass; assay: Test F preemergence; assay type: in vivo, Lolium multiflorum; settings: 21 days, scale 0 to 100
Procedure, shortened: (§4)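 Greenhouse test: soil (loam with sand) seeded, then sprayed preemergence using a surfactant-containing non-phytotoxic solvent formulation. At day 21, response judged visually relative to controls, where 0 means no effect and 100 means full control.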

[9] = test system: bluegrass; assay: Test F preemergence; assay type: in vivo, Poa annua; settings: 21 days, scale 0 to 100
Procedure, shortened: as §4

[10] = test system: quackgrass; assay: Test F preemergence; assay type: in vivo, Elytrigia repens; settings: 21 days, scale 0 to 100
Excerpt: as §2, §3

[11] = test system: buckwheat, wild; assay: Test F preemergence; assay type: in vivo, Polygonum convolvulus; settings: 21 days, scale 0 to 100
Excerpt: as §2, §3

With `N#Cc1cccc(Oc2ncc(Cl)cn2)c1-n1cc(OCC(F)(F)F)cn1` [Compound 274, 3-[(5-chloro-2-pyrimidinyl)oxy]-2-[4-(2,2,2-trifluoroethoxy)-1H-pyrazol-1-yl]benzonitrile] the plant injury at 16 g/ha ([1]; 16 g ai/ha, scale 0 (no effect) to 100 (complete control), read-out: Plant response rating, Wheat, Spring) was 0%, the plant injury at 31 g/ha ([1]; 31 g ai/ha, scale 0 (no effect) to 100 (complete control), read-out: Plant response rating, Wheat, Spring) was 0% and the plant injury at 125 g/ha ([1]; 125 g ai/ha, scale 0-100, read-out: Plant response rating, Wheat, Spring) was 55%. The plant injury at 16 g/ha ([2]; 16 g ai/ha, scale 0 (no effect) to 100 (complete control), read-out: Plant response rating, Wheat, Winter) was 0%, the plant injury at 31 g/ha ([2]; 31 g ai/ha, scale 0 (no effect) to 100 (complete control), read-out: Plant response rating, Wheat, Winter) was 0% and the plant injury at 125 g/ha ([2]; 125 g ai/ha, scale 0-100, read-out: Plant response rating, Wheat, Winter) was 35%. It also gave a pest or weed control at 16 g/ha ([3]; 16 g ai/ha, scale 0 (no effect) to 100 (complete control), read-out: Plant response rating, Mustard, Wild) of 15%, a pest or weed control at 31 g/ha ([3]; 31 g ai/ha, scale 0-100, read-out: Plant response rating, Mustard, Wild) of 25% and a pest or weed control at 62 g/ha ([3]; 62 g ai/ha, scale 0-100, read-out: Plant response rating, Mustard, Wild) of 95%. The pest or weed control at 125 g/ha ([3]; 125 g ai/ha, scale 0-100, read-out: Plant response rating, Mustard, Wild) was 100%, the pest or weed control at 62 g/ha ([4]; 62 g ai/ha) was 20% and the pest or weed control at 16 g/ha ([4]; 16 g ai/ha) was 10%. It also gave a pest or weed control at 31 g/ha ([4]; 31 g ai/ha) of 15%, a pest or weed control at 125 g/ha ([4]; 125 g ai/ha) of 30% and a pest or weed control at 16 g/ha ([5]; 16 g ai/ha, scale 0-100, read-out: Plant response rating, Mustard, Wild) of 70%. The pest or weed control at 31 g/ha ([5]; 31 g ai/ha, scale 0 to 100 (0 no effect, 100 complete control), read-out: Plant response rating, Mustard, Wild) was 75%, the pest or weed control at 62 g/ha ([5]; 62 g ai/ha, scale 0 to 100 (0 no effect, 100 complete control), read-out: Plant response rating, Mustard, Wild) was 100% and the pest or weed control at 125 g/ha ([5]; 125 g ai/ha, scale 0 to 100 (0 no effect, 100 complete control), read-out: Plant response rating, Mustard, Wild) was 100%. For the same compound, the pest or weed control at 16 g/ha ([6]; 16 g ai/ha, scale 0-100, read-out: Plant response rating, Windgrass) was 15%, the pest or weed control at 31 g/ha ([6]; 31 g ai/ha, scale 0 to 100 (0 no effect, 100 complete control), read-out: Plant response rating, Windgrass) was 25% and the pest or weed control at 62 g/ha ([6]; 62 g ai/ha, scale 0 to 100 (0 no effect, 100 complete control), read-out: Plant response rating, Windgrass) was 35%. For the same compound, the pest or weed control at 125 g/ha ([6]; 125 g ai/ha, scale 0 to 100 (0 no effect, 100 complete control), read-out: Plant response rating, Windgrass) was 35%, the “Plant response rating, Morningglory” value ([7]; 16 g ai/ha) was 35 and the “Plant response rating, Morningglory” value ([7]; 31 g ai/ha) was 50. For the same compound, the “Plant response rating, Morningglory” value ([7]; 62 g ai/ha) was 65, the “Plant response rating, Morningglory” value ([7]; 125 g ai/ha) was 98 and the “Plant response rating, Morningglory” value ([7]; 250 g ai/ha) was 100. For the same compound, the “Plant response rating, Ryegrass, Italian” value ([8]; 16 g ai/ha) was 35, the “Plant response rating, Ryegrass, Italian” value ([8]; 31 g ai/ha) was 40 and the “Plant response rating, Ryegrass, Italian” value ([8]; 62 g ai/ha) was 70. For the same compound, the “Plant response rating, Ryegrass, Italian” value ([8]; 125 g ai/ha) was 75, the “Plant response rating, Ryegrass, Italian” value ([8]; 250 g ai/ha) was 100 and the “Plant response rating, Bluegrass” value ([9]; 16 g ai/ha) was 0. For the same compound, the “Plant response rating, Bluegrass” value ([9]; 31 g ai/ha) was 20, the “Plant response rating, Bluegrass” value ([9]; 62 g ai/ha) was 50 and the “Plant response rating, Bluegrass” value ([9]; 125 g ai/ha) was 85. The “Plant response rating, Bluegrass” value ([9]; 250 g ai/ha) was 100, the “Plant response rating, Quackgrass” value ([10]; 16 g ai/ha) was 40 and the “Plant response rating, Quackgrass” value ([10]; 31 g ai/ha) was 40. The “Plant response rating, Quackgrass” value ([10]; 62 g ai/ha) was 70, the “Plant response rating, Quackgrass” value ([10]; 125 g ai/ha) was 85 and the “Plant response rating, Quackgrass” value ([10]; 250 g ai/ha) was 98. For the same compound, the “Plant response rating, Buckwheat, Wild” value ([11]; 16 g ai/ha) was 100, the “Plant response rating, Buckwheat, Wild” value ([11]; 31 g ai/ha) was 100 and the “Plant response rating, Buckwheat, Wild” value ([11]; 62 g ai/ha) was 100. The “Plant response rating, Buckwheat, Wild” value ([11]; 125 g ai/ha) was 100 and the “Plant response rating, Buckwheat, Wild” value ([11]; 250 g ai/ha) was 100.
